Biological target: cruzipain (Trypanosoma cruzi, UniProt P25779)
Test: biochemical
Conditions: 50 pM cruzipain, pH 5.5, 15 minutes preincubation, 2 μM Z-Phe-Arg-AMC substrate
Procedure: The assay solutions were mixed and incubated for 15 minutes at room temperature prior to the addition of 2 μM of Z-Phe-Arg-AMC substrate. […] Percent of inhibition were calculated by fitting experimental values to standard mathematical model for dose response curve.

Chain of cruzipain (P25779 123-467): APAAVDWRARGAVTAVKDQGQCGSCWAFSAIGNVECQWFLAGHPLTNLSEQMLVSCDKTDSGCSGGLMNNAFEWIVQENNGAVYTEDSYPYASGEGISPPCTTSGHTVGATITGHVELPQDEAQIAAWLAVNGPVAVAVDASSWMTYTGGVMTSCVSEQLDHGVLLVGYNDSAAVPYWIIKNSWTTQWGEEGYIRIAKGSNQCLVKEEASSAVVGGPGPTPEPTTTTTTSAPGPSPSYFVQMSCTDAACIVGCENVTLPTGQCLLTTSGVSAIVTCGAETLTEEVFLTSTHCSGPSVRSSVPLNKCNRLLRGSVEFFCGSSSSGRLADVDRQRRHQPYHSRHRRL

Row | Compound | IC50
1 | CC(C)(F)C[C@H](N[C@@H](c1ccc(-c2ccc([C@@H](O)C(F)F)cc2)cc1)C(F)(F)F)C(=O)NC(C#N)Cc1ccc(C(F)(F)F)cc1F (stereo partly drawn) [Example 37, (S)-2-{(S)-1-[4′-((R)-2,2-Difluoro-1-hydroxy-ethyl)-biphenyl-4-yl]-2,2,2-trifluoro-ethylamino}-4-fluoro-4-methyl-pentanoic acid [cyano-(2-fluoro-4-trifluoromethyl-benzyl)-methyl]-amide] | 9.3 nM
2 | CC(C)(F)C[C@H](N[C@@H](c1ccc(-c2ccc(C3(C(N)=O)CC3)cc2)cc1)C(F)(F)F)C(=O)N[C@H](C#N)Cc1ccc(C#N)cc1F [Example 38, 1-[4′-((S)-1-{(S)-1-[(S)-1-Cyano-2-(4-cyano-2-fluoro-phenyl)-ethylcarbamoyl]-3-fluoro-3-methyl-butylamino}-2,2,2-trifluoro-ethyl)-biphenyl-4-yl]-cyclopropanecarboxylic acid amide] | 0.3 nM
3 | CC(C)(F)C[C@H](N[C@@H](c1ccc(-c2ccc(-c3ccncc3)cc2)cc1)C(F)(F)F)C(=O)N[C@H](C#N)Cc1ccc(C#N)cc1F [Example 39, (S)-4-Fluoro-4-methyl-2-[(S)-2,2,2-trifluoro-1-(4′-pyridin-4-yl-biphenyl-4-yl)-ethylamino]-pentanoic acid [(S)-1-cyano-2-(4-cyano-2-fluoro-phenyl)-ethyl]-amide] | 0.6 nM
4 | CC(C)[C@H](N[C@@H](c1ccc(Br)cc1)C(F)(F)F)C(=O)N[C@H](C#N)Cc1ccccc1 [Example 40, (S)-2-[(S)-1-(4-Bromo-phenyl)-2,2,2-trifluoro-ethylamino]-N-((S)-1-cyano-2-phenyl-ethyl)-3-methyl-butyramide] | 10.5 nM
5 | CC(C)(O)Cc1ccc(-c2ccc([C@H](N[C@@H](CC(C)(C)F)C(=O)N[C@H](C#N)Cc3ccc(C#N)cc3F)C(F)(F)F)cc2)cc1 [Example 42, (S)-4-Fluoro-4-methyl-2-{(S)-2,2,2-trifluoro-1-[4′-(2-hydroxy-2-methyl-propyl)-biphenyl-4-yl]-ethylamino}-pentanoic acid [(S)-1-cyano-2-(4-cyano-2-fluoro-phenyl)-ethyl]-amide] | 0.9 nM
6 | CC(C)(F)C[C@H](N[C@@H](c1ccc(-c2ccc(C3(C(=O)N4CCOCC4)CC3)cc2)cc1)C(F)(F)F)C(=O)N[C@H](C#N)Cc1ccc(C#N)cc1F [Example 43, (S)-4-Fluoro-4-methyl-2-((S)-2,2,2-trifluoro-1-{4′-[1-(morpholine-4-carbonyl)-cyclopropyl]-biphenyl-4-yl}-ethylamino)-pentanoic acid [(S)-1-cyano-2-(4-cyano-2-fluoro-phenyl)-ethyl]-amide] | 0.35 nM
7 | CC(C)(F)C[C@H](N[C@@H](c1ccc(Br)cc1)C(F)(F)F)C(=O)N[C@H](C#N)Cc1ccc(C#N)cc1F [Example 44, (S)-2-[(S)-1-(4-Bromo-phenyl)-2,2,2-trifluoro-ethylamino]-4-fluoro-4-methyl-pentanoic acid [(S)-1-cyano-2-(4-cyano-2-fluoro-phenyl)-ethyl]-amide] | 9.4 nM
8 | CC(C)(F)C[C@H](N[C@@H](c1ccc(-c2ccc(-c3cc[n+]([O-])cc3)cc2)cc1)C(F)(F)F)C(=O)N[C@H](C#N)Cc1ccccc1 [Example 45, (S)-4-Fluoro-4-methyl-2-{(S)-2,2,2-trifluoro-1-[4′-(1-oxy-pyridin-4-yl)-biphenyl-4-yl]-ethylamino}-pentanoic acid ((S)-1-cyano-2-phenyl-ethyl)-amide] | 7.8 nM
9 | CC(C)(F)C[C@H](N[C@@H](c1ccc(-c2ccc(S(C)(=O)=O)cc2)cc1)C(F)(F)F)C(=O)N[C@H](C#N)Cc1ccc(C(F)(F)F)cc1F [Example 46, (S)-4-Fluoro-4-methyl-2-[(S)-2,2,2-trifluoro-1-(4′-methanesulfonyl-biphenyl-4-yl)-ethylamino]-pentanoic acid [(S)-cyano-(2-fluoro-4-trifluoromethyl-benzyl)-methyl]-amide] | 1.5 nM
10 | CC(C)[C@H](N[C@@H](c1ccc(-c2ccc(N3CCNCC3)cc2)cc1)C(F)(F)F)C(=O)N[C@H](C#N)Cc1ccccc1 [Example 47, 4-[4′-((S)-1-{(S)-1-[((S)-Benzyl-cyano-methyl)-carbamoyl]-2-methyl-propylamino}-2,2,2-trifluoro-ethyl)-biphenyl-4-yl]-piperazin-1-ium; chloride] | 0.1 nM
11 | CC(C)[C@H](N[C@@H](c1ccc(-c2ccc(C3(C(N)=O)CC3)cc2)cc1)C(F)(F)F)C(=O)N[C@H](C#N)Cc1ccccc1 [Example 48, 1-[4′-((S)-1-{(S)-1-[((S)-Benzyl-cyano-methyl)-carbamoyl]-2-methyl-propylamino}-2,2,2-trifluoro-ethyl)-biphenyl-4-yl]-cyclopropanecarboxylic acid amide] | 0.7 nM
12 | CC(C)[C@H](N[C@@H](c1ccc(-c2ccncc2)cc1)C(F)(F)F)C(=O)N[C@H](C#N)Cc1ccccc1 [Example 49, (S)-N-((S)-Benzyl-cyano-methyl)-3-methyl-2-[(S)-2,2,2-trifluoro-1-(4-pyridin-4-yl-phenyl)-ethylamino]-butyramide] | 5.6 nM
13 | CC(C)[C@H](N[C@@H](c1ccc(-c2ccc([C@@H](O)C(F)F)cc2)cc1)C(F)(F)F)C(=O)N[C@H](C#N)Cc1ccccc1 [Example 50, (S)-N-((S)-Benzyl-cyano-methyl)-2-{(S)-1-[4′-((R)-2,2-difluoro-1-hydroxy-ethyl)-biphenyl-4-yl]-2,2,2-trifluoro-ethylamino}-3-methyl-butyramide] | 3.2 nM
14 | CC(C)(F)C[C@H](N[C@@H](c1ccc(-c2ccc(C3(C(=O)NCCO)CC3)cc2)cc1)C(F)(F)F)C(=O)N[C@H](C#N)Cc1ccccc1 [Example 52, 1-[4′-((S)-1-{(S)-1-[((S)-Benzyl-cyano-methyl)-carbamoyl]-3-fluoro-3-methyl-butylamino}-2,2,2-trifluoro-ethyl)-biphenyl-4-yl]-cyclopropanecarboxylic acid (2-hydroxy-ethyl)-amide] | 2.8 nM
15 | COC(=O)CNC(=O)C1(c2ccc(-c3ccc([C@H](N[C@@H](CC(C)(C)F)C(=O)N[C@H](C#N)Cc4ccccc4)C(F)(F)F)cc3)cc2)CC1 [Example 53, ({1-[4′-((S)-1-{(S)-1-[((S)-Benzyl-cyano-methyl)-carbamoyl]-3-fluoro-3-methyl-butylamino}-2,2,2-trifluoro-ethyl)-biphenyl-4-yl]-cyclopropanecarbonyl}-amino)-acetic acid methyl ester] | 3.1 nM
16 | CC(C)(F)C[C@H](N[C@@H](c1ccc(-c2ccc(C3(C(=O)NCC(F)(F)F)CC3)cc2)cc1)C(F)(F)F)C(=O)N[C@H](C#N)Cc1ccccc1 [Example 54, 1-[4′-((S)-1-{(S)-1-[((S)-Benzyl-cyano-methyl)-carbamoyl]-3-fluoro-3-methyl-butylamino}-2,2,2-trifluoro-ethyl)-biphenyl-4-yl]-cyclopropanecarboxylic acid (2,2,2-trifluoro-ethyl)-amide] | 9.4 nM
17 | CC(C)(F)C[C@H](N[C@@H](c1ccc(-c2ccc(C3(C(=O)NCC(N)=O)CC3)cc2)cc1)C(F)(F)F)C(=O)N[C@H](C#N)Cc1ccccc1 [Example 55, 1-[4′-((S)-1-{(S)-1-[((S)-Benzyl-cyano-methyl)-carbamoyl]-3-fluoro-3-methyl-butylamino}-2,2,2-trifluoro-ethyl)-biphenyl-4-yl]-cyclopropanecarboxylic acid carbamoylmethyl-amide] | 1.9 nM
